Laboratory results reported in patent publication US20030045482A1, “Using D-ribose with or without anti-microbial agents to enhance healing and subsequent recovery by both synthesizing and sparing NAD derivatives” (priority 2000, published 2003).

Columns and labels:
appetite = appetite after D-ribose aqueous solution given during a meal; type: in vivo, people
From the text: This brings up the paradoxical role that ribose plays with respect to appetite. Ribose is offered to consumers primarily because it is rate-limiting in the production of phosphoribosylpyrophosphate (PRPP), a precursor for salvage and for de novo adenine nucloeotide synthetic pathways, which maintain, AMP and ADP (adenosine diphosphate) for re-synthesis of ATP. The high-energy bonds of ATP are the direct source for muscle contraction including myocardial contractions but also energize every cell in the body, especially the immune system under attack. The presence of de novo D-ribose not only enables ATP to be synthesized much faster, but its presence also serves to stimulate the salvage of these nucleotides. With this in mind, a curious thing has been observed. […] The only explanation for this is that the salvage of these nucleotides especially ATP is stimulated by forcibly spraying the ribose onto the tongue. This causes the stomach to send out less of the hormone ghrelin and a full feeling ensues with less food. If a person is ill, care must be taken not to spray ribose forcibly on the tongue by pump action or compressed gas, but rather have it be swallowed immediately or given parenterally.

ATP synthesis = conditions: with de novo D-ribose; 72 to 96 hours ordinarily required from glucose; cited from earlier work
infected wounds = experiment: rate of healing of infected wounds, ribose combined with antibiotics; type: in vivo
From the text: (§1) Only with respect to the skin has ribose been used for healing purposes, and these are for wound healing in which ribose in combination with other nutrients improved the rate of healing. […] It then became reasonable to assume that this combination should be extended to internal wounds.

clean wounds = experiment: rate of healing of clean wounds; type: in vivo; conditions: ribose by itself
From the text: as §1

## O=C[C@H](O)[C@H](O)[C@H](O)CO [D-ribose]
appetite; aqueous solution sprayed forcibly by pump action on the tongue during a meal
  effect on appetite: causes the appetite to abate in many people
appetite; ribose swallowed
  effect on appetite: far less such effect
ATP synthesis
  time for synthesis of ATP: ≥ 8 h
Infected wounds
  rate of healing of infected wounds: will improve the rate of healing infected wounds
Clean wounds
  rate of healing of clean wounds: will improve the rate of healing of clean wounds
